Reference: ChEMBL document CHEMBL3763033, “New quinoline derivatives as nicotinic receptor modulators” (Eur J Med Chem, 2016)
Calls of active or inactive are those of the source. The rule behind the calls is not given here.

What was measured:
Rattus norvegicus [1] = species on record: Rattus norvegicus; experiment: Displacement of [3H]cytisine from Wistar rat cerebral cortex alpha4beta2* nAChR at 1 uM incubated for 75 mins by competition binding assay; format: tissue-based
Rattus norvegicus [2] = species on record: Rattus norvegicus; experiment: Displacement of [3H]methyllycaconitine from Sprague-Dawley rat brain alpha7* nAChR at 1 uM incubated for 2.5 hrs by liquid scintillation counting analysis; format: tissue-based
Rattus norvegicus [3] = species on record: Rattus norvegicus; experiment: Selectivity ratio of Ki for Wistar rat cerebral cortex alpha4beta2* nAChR to Ki for Sprague-Dawley rat brain alpha7* nAChR; format: tissue-based
Gallus gallus [4] = species on record: Gallus gallus; experiment: Antagonist activity at chicken alpha7/GlyR chimeric receptor expressed in Xenopus oocytes assessed as inhibition of acetylcholine-induced ion current at 50 uM preincubated with compound followed by 100 uM acetylcholine addition along with compound treatment measured after 36 to 72 hrs by two electrode voltage clamp method; format: cell-based
Rattus norvegicus [5] = species on record: Rattus norvegicus; experiment: Activation of rat alpha4beta2* nAChR expressed in Xenopus oocytes at 50 uM after 36 to 72 hrs by two electrode voltage clamp method; format: cell-based
[6] = target: T1, Neuronal acetylcholine receptor subunit alpha-7 (Homo sapiens, UniProt P36544); experiment: Agonist activity at human alpha7 receptor expressed in mouse Neuro2a cells assessed as induction of intracellular calcium level preincubated with PNU-120596 for 20 mins followed by compound addition measured every 2 sec for 3 mins by fluorescence microplate reader analysis; format: cell-based
Rattus norvegicus [7] = species on record: Rattus norvegicus; experiment: Antagonist activity at rat alpha4beta2* nAChR expressed in Xenopus oocytes assessed as inhibition of epibatidine-induced ion current at 50 uM preincubated with compound followed by 1 uM epibatidine addition along with compound treatment measured after 36 to 72 hrs by two electrode voltage clamp method; format: cell-based
Gallus gallus [8] = species on record: Gallus gallus; experiment: Activation of chicken alpha7/GlyR chimeric receptor expressed in Xenopus oocytes at 50 uM after 36 to 72 hrs by two electrode voltage clamp method; format: cell-based
[9] = Displacement of [3H]cytisine from Wistar rat cerebral cortex alpha4beta2* nAChR incubated for 75 mins by competition binding assay; format: tissue-based
[10] = target: T1, Neuronal acetylcholine receptor subunit alpha-7; experiment: Agonist activity at human alpha7 receptor expressed in mouse Neuro2a cells assessed as induction of intracellular calcium level measured every 2 sec for 3 mins by fluorescence microplate reader analysis in presence of 2 uM alpha7 receptor antagonist alpha-cobratoxin; format: cell-based
[11] = Displacement of [3H]methyllycaconitine from Sprague-Dawley rat brain alpha7* nAChR incubated for 2.5 hrs by liquid scintillation counting analysis; format: tissue-based
[12] = target: T1, Neuronal acetylcholine receptor subunit alpha-7; experiment: (§1) Antagonist activity at human alpha7 receptor expressed in mouse Neuro2a cells assessed as inhibition of acetylcholine iodide-induced intracellular calcium level at 300 uM preincubated with PNU-120596 for 20 mins followed by acetylcholine iodide addition along with compound treatment measured every 2 sec for 3 mins by fluorescence microplate reader analysis; format: cell-based
Rattus norvegicus [13] = species on record: Rattus norvegicus; experiment: Selectivity ratio of Ki for Sprague-Dawley rat brain alpha7* nAChR to Ki for Wistar rat cerebral cortex alpha4beta2* nAChR; format: tissue-based
[14] = target: T1, Neuronal acetylcholine receptor subunit alpha-7; experiment: as §1, with “50” for “300”; format: cell-based

T1 sequence (P36544 whole entry): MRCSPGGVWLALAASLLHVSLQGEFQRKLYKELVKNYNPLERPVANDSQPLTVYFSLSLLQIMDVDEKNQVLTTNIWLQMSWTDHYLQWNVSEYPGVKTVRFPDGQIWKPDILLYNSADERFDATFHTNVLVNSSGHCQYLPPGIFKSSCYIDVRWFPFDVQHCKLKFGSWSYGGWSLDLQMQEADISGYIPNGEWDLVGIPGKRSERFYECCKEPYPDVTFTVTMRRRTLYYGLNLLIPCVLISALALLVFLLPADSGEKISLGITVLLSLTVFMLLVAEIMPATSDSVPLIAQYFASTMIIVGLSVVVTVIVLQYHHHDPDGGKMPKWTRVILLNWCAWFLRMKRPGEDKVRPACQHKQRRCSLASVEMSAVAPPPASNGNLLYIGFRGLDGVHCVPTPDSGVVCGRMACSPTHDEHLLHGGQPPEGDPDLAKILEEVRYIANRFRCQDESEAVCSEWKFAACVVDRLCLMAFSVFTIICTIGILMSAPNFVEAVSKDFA

Structure (SMILES)	Activity (Rattus norvegicus [1])	Activity (Rattus norvegicus [2])	also measured
c1cnc2cc(N3CCN4CCC3C4)ccc2c1 (stereo not given)	< 20%	< 20%	–
C[N+]12CCC(CC1)C(NC(=O)c1ccc3ncccc3c1)C2 (stereo not given)	< 20%	< 20%	–
C[N+]12CCC(CC1)C(NC(=O)c1cccc3cnccc13)C2 (stereo not given)	< 20%	< 20%	–
O=C(c1cccc2cnccc12)N1CCN2CCC1CC2	< 20%	< 20%	–
c1cnc2cc(N3CCN4CCC3CC4)ccc2c1	–	–	Ratio Ki (Rattus norvegicus [3]): 3; inhibition (Gallus gallus [4]): Active; Activity (Rattus norvegicus [5]): inactive; EC50 [6]: 1090 nM; inhibition (Rattus norvegicus [7]): Active; Activity (Gallus gallus [8]): inactive; Ki [9]: > 1000 nM; Activity [10]: inactive; Ki [11]: 117 nM
c1cc2cc(N3CCN4CCC3C4)ccc2cn1 (stereo not given)	< 20%	< 20%	–
C[N+]12CCC(CC1)N(C(=O)c1ccc3cccnc3c1)CC2	< 20%	< 20%	–
c1cnc2ccc(N3CCN4CCC3CC4)cc2c1	–	–	Ratio Ki (Rattus norvegicus [3]): 10; inhibition (Gallus gallus [4]): Active; Activity (Rattus norvegicus [5]): inactive; EC50 [6]: 1410 nM; inhibition (Rattus norvegicus [7]): Active; Activity (Gallus gallus [8]): inactive; Ki [9]: > 1000 nM; Activity [10]: inactive; Ki [11]: 96 nM
C[N+]12CCC(C1)N(c1ccc3ncccc3c1)CC2 (stereo not given)	< 20%	< 20%	–
c1cnc2ccc(N3CCN4CCC3C4)cc2c1 (stereo not given)	–	–	inhibition (Gallus gallus [4]): Active; Activity (Rattus norvegicus [5]): inactive; inhibition (Rattus norvegicus [7]): Active; inhibition [12]: Active; Activity (Gallus gallus [8]): inactive; Ki [9]: 412 nM; Ratio Ki (Rattus norvegicus [13]): 2; Ki [11]: > 1000 nM
CCN1C[C@]2(COC(=O)c3ccccc3N3C(=O)CC(C)C3=O)CC[C@H](OC)[C@@]34C2[C@H](OC)[C@](O)(C13)[C@@]1(O)C[C@H](OC)[C@H]2C[C@@H]4[C@@H]1[C@H]2OC (stereo not given in full)	–	–	Ki [11]: 1.4 nM
O=C(Oc1ccc(Br)cc1)N1CCN2CCC1CC2 [SSR180711]	–	–	Ki [11]: 22 nM
O=C(c1cccc2cnccc12)N1CCN2CCC1C2 (stereo not given)	< 20%	< 20%	–
C[N+]12CCC(C1)N(C(=O)c1ccc3ncccc3c1)CC2 (stereo not given)	< 20%	< 20%	–
O=C(NC1CN2CCC1CC2)c1ccc2cccnc2c1 (stereo not given)	–	–	Ratio Ki (Rattus norvegicus [3]): 3; inhibition (Gallus gallus [4]): Active; Activity (Rattus norvegicus [5]): inactive; EC50 [6]: 1570 nM; inhibition (Rattus norvegicus [7]): Active; inhibition [14]: Active; Activity (Gallus gallus [8]): inactive; Ki [9]: > 1000 nM; Activity [10]: inactive; Ki [11]: 287 nM
C[N+]12CCC(C1)N(c1ccc3cnccc3c1)CC2 (stereo not given)	< 20%	< 20%	–
c1cnc2ccc(C3CN4CCC3CC4)cc2c1 (stereo not given)	< 20%	< 20%	–
C[N+]12CCC(C1)N(C(=O)c1ccc3cccnc3c1)CC2 (stereo not given)	< 20%	< 20%	–
C[N+]12C=C(c3ccc4ncccc4c3)C(CC1)CC2	< 20%	< 20%	–
c1cncc(C2CCC3CCN2CC3)c1 (stereo not given)	–	–	Ki [11]: 11 nM

Structure (SMILES)	Activity (Rattus norvegicus [1])	Activity (Rattus norvegicus [2])	also measured
C[N+]12CCC(CC1)N(C(=O)c1cccc3cnccc13)CC2	< 20%	< 20%	–
O=C(N[C@H]1CN2CCC1CC2)c1ccc(Cl)cc1 [PNU-282987]	–	–	Ki [11]: 24 nM
C1=C(c2ccc3ncccc3c2)C2CCN1CC2	< 20%	< 20%	–
O=C(c1ccc2ncccc2c1)N1CCN2CCC1C2 (stereo not given)	< 20%	< 20%	–
O=C(c1ccc2ncccc2c1)N1CCN2CCC1CC2	< 20%	< 20%	–
Cc1ccc2oc(N3CCN4CCC3CC4)nc2n1	–	–	Ki [11]: 13.5 nM
O=C(c1ccc2cccnc2c1)N1CCN2CCC1CC2	< 20%	< 20%	–
O=C(c1ccc2cccnc2c1)N1CCN2CCC1C2 (stereo not given)	< 20%	< 20%	–
c1cc(N2CCN3CCC2C3)c2cccnc2c1 (stereo not given)	< 20%	< 20%	–
CN1CCC[C@H]1c1cccnc1 [NICOTINE]	–	–	Ki [9]: 2.3 nM
C[N+]12CCC(CC1)N(C(=O)c1ccc3ncccc3c1)CC2	< 20%	< 20%	–
C[N+]12CCC(C1)N(c1cccc3ncccc13)CC2 (stereo not given)	< 20%	< 20%	–
c1cc2cc(N3CCN4CCC3CC4)ccc2cn1	–	–	Ratio Ki (Rattus norvegicus [3]): 3; Ki [9]: > 1000 nM; Ki [11]: 248 nM
O=C(NC1CN2CCC1CC2)c1ccc2ncccc2c1 (stereo not given)	< 20%	< 20%	–
C[N+]12CCC(C1)N(C(=O)c1cccc3cnccc13)CC2 (stereo not given)	< 20%	< 20%	–
O=C(NC1CN2CCC1CC2)c1cccc2cnccc12 (stereo not given)	< 20%	< 20%	–
C[N+]12CCC(CC1)C(NC(=O)c1ccc3cccnc3c1)C2 (stereo not given)	< 20%	< 20%	–
c1cc(N2CCN3CCC2CC3)c2cccnc2c1	< 20%	< 20%	–
O=C(N[C@H]1CN2CCC1CC2)c1cc2cccc(Cl)c2s1 [ENCENICLINE]	–	–	Ki [11]: 9.98 nM
